Source: ChEMBL document CHEMBL5126567, “Synthesis of novel immunomodulatory 1,4-disubstituted bis-1,2,3-triazoles by using click chemistry and their intracellular mechanism of action” (Bioorg Med Chem Lett, 2022)
Activity calls are given as the source filed them. The rule behind the calls is not given here.

Tests used:
J774.2 [1] = assay: Antiinflammatory activity in LPS-induced mouse J774.2 cells assessed as decrease in TNF-alpha level at 1 to 10 ug/mL measured after 24 hrs by ELISA; assay type: functional, cell-based; details: dose 1-10 µg/ml
J774.2 [2] = assay: Antiinflammatory activity in LPS-induced mouse J774.2 cells assessed as decrease in IL6 level at 1 to 10 ug/mL measured after 24 hrs by ELISA; assay type: functional, cell-based; details: dose 1-10 µg/ml
J774.2 [3] = assay: Cytotoxicity against mouse J774.2 cells assessed as cell viability; assay type: toxicity, cell-based
J774.2 [4] = assay: Antiinflammatory activity in LPS-induced mouse J774.2 cells assessed as decrease in GMCSF level at 1 to 10 ug/mL measured after 24 hrs by ELISA; assay type: functional, cell-based; details: dose 1-10 µg/ml
J774.2 [5] = assay: Inhibition of PI3K/AKT signalling pathway in LPS-induced mouse J774.2 cells assessed as decrease in phosphorylated PI3K level at 10 ug/mL after 24 hrs by flow cytometry; assay type: cell-based; details: dose 10.0 µg/ml

SMILES	Activity (J774.2 [1])	Activity (J774.2 [2])	Activity (J774.2 [3])	Activity (J774.2 [4])	inhibition (J774.2 [5])
O=C(Cn1cc(C2CCCC2)nn1)Nc1ccccc1NC(=O)Cn1cc(C2CCCC2)nn1	Active	Active	Non-Toxic	Active	Active
CCOC(=O)c1cn(CC(=O)Nc2ccccc2NC(=O)Cn2cc(C(=O)OCC)nn2)nn1	Active	Active	Non-Toxic	Active	
O=C(Cn1cc(CC2CCCCC2)nn1)Nc1ccccc1NC(=O)Cn1cc(CC2CCCCC2)nn1	Active	Active	Non-Toxic	Active	Active
O=C(Cn1cc(-c2ccccc2)nn1)Nc1ccccc1NC(=O)Cn1cc(-c2ccccc2)nn1	Active	Active	Non-Toxic	Active	
CCCC(C)c1cn(CC(=O)Nc2ccccc2NC(=O)Cn2cc(C(C)CCC)nn2)nn1 (stereo not drawn)	Active	Active	Non-Toxic	Active	Active
O=C(Cn1cc(C2CC2)nn1)Nc1ccccc1NC(=O)Cn1cc(C2CC2)nn1	Active	Active	Non-Toxic	Active	Active
